In US20250009774A1, “COMPOSITIONS AND METHODS USING A COMBINATION OF OLEUROPEIN AND MAGNESIUM” (SOCIETE DES PRODUITS NESTLE S.A., priority 2021, published 2025):

Tested on: myotubes differentiated from C2C12 cells
Experiment: mitochondrial calcium elevation (mitochondrial aequorin luminescence) on caffeine stimulation
Format: cell-based
Conditions: 1 mM Mg^2+ + 3 μM Oea; C2C12-derived myotubes; 5 mM caffeine; n=32; P<0.05 Student's t-test; FIG. 1
Protocol: To test the effect of Oleuropein aglycone (Oea), Mg^2+ and their combination on mitochondrial activation in living cells, the inventors measured mitochondrial calcium elevation in myotubes differentiated from C2C12 cells.
C2C12 cells were purchased from ATCC. C2C12 cells were seeded in 384-well plates at a density of 4500 cells per well in DMEM medium, high glucose (Gibco)+10% fetal calf serum. Myotubes were differentiated from C2C12 cells by growing the cells in DMEM containing 2% horse serum, for 6 days.
Mitochondrial calcium measurements were carried out using myotubes infected with the adenovirus (from Sirion biotech) expressing the luminescent mitochondrially-targeted calcium sensor mitochondrial mutated aequorin (Montero et al., 2004). […] Myotubes were stimulated with 5 mM of caffeine and the total calcium transiting during stimulation was calculated as the area under the curve, during caffeine stimulation. Luminescence was measured at the FLIPR cell imaging reader (Molecular devices). Calibration of the luminescence data into Calcium concentration was carried out using an algorithm as described previously (Alvarez & Montero, 2002). Custom module analysis based on Excel (Microsoft) and GraphPad Prism 7.02 (GraphPad) software was used for quantification.

C/C=C1/C(O)OC=C(C(=O)OC)[C@H]1CC(=O)OCCc1ccc(O)c(O)c1 (mixture of isomers) [Oleuropein aglycone]
mitochondrial calcium rise: real measured effect of the combination vs expected theoretical effect (sum of Oea effect and Mg^2+ effect): synergies with Mg^2+ to activate mitochondria
